Test results taken from PubChem BioAssay (NCI).
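Test compounds were applied to cells in 96-well plates for 48 hours at 5 doses. The concentration for 50% growth inhibition is given as GI50. TGI denotes the concentration required for complete inhibition of growth.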

Key:
Assay in all cases: inhibition of tumour cell growth, NCI panel, 48 h
786-0 renal = system: 786-0 renal
A498 renal = system: A498 renal
A549 NSCLC = system: A549 NSCLC
ACHN renal = system: ACHN renal
BT-549 breast = system: BT-549 breast
CAKI-1 renal = system: CAKI-1 renal
CCRF-CEM leukemia = system: CCRF-CEM leukemia
COLO 205 colon = system: COLO 205 colon
DU-145 prostate = system: DU-145 prostate
EKVX NSCLC = system: EKVX NSCLC
HCC-2998 colon = system: HCC-2998 colon
HCT-116 colon = system: HCT-116 colon
HCT-15 colon = system: HCT-15 colon
HL-60(TB) leukemia = system: HL-60(TB) leukemia
HOP-62 NSCLC = system: HOP-62 NSCLC
HS 578T breast = system: HS 578T breast
HT29 colon = system: HT29 colon
IGROV1 ovarian = system: IGROV1 ovarian
K-562 leukemia = system: K-562 leukemia
KM12 colon = system: KM12 colon
LOX IMVI melanoma = system: LOX IMVI melanoma
M14 melanoma = system: M14 melanoma
MALME-3M melanoma = system: MALME-3M melanoma
MCF7 breast = system: MCF7 breast
MDA-MB-231 breast = system: MDA-MB-231 breast
MDA-MB-435 = system: MDA-MB-435
MOLT-4 leukemia = system: MOLT-4 leukemia
NCI-H226 lung = system: NCI-H226 lung
NCI-H23 lung = system: NCI-H23 lung
NCI-H460 lung = system: NCI-H460 lung
NCI-H522 lung = system: NCI-H522 lung
NCI/ADR-RES ovarian = system: NCI/ADR-RES ovarian
OVCAR-3 ovarian = system: OVCAR-3 ovarian
OVCAR-4 ovarian = system: OVCAR-4 ovarian
OVCAR-5 ovarian = system: OVCAR-5 ovarian
OVCAR-8 ovarian = system: OVCAR-8 ovarian
PC-3 prostate = system: PC-3 prostate
RPMI-8226 leukemia = system: RPMI-8226 leukemia
RXF 393 renal = system: RXF 393 renal
SF-268 CNS = system: SF-268 CNS
SF-295 CNS = system: SF-295 CNS
SF-539 CNS = system: SF-539 CNS
SK-MEL-2 melanoma = system: SK-MEL-2 melanoma
SK-MEL-28 melanoma = system: SK-MEL-28 melanoma
SK-MEL-5 melanoma = system: SK-MEL-5 melanoma
SK-OV-3 ovarian = system: SK-OV-3 ovarian
SN12C renal = system: SN12C renal
SNB-19 CNS = system: SNB-19 CNS
SNB-75 CNS = system: SNB-75 CNS
SW-620 colon = system: SW-620 colon
T-47D breast = system: T-47D breast
TK-10 renal = system: TK-10 renal
U251 CNS = system: U251 CNS
UACC-257 melanoma = system: UACC-257 melanoma
UACC-62 melanoma = system: UACC-62 melanoma
UO-31 renal = system: UO-31 renal

## NS(=O)(=O)N(c1cc(C(F)(F)F)cc(C(F)(F)F)c1)C1CCN(Cc2ccc(C(F)(F)F)cc2)CC1
786-0 renal
  GI50: 7.47 µM
  TGI: 14.1 µM
A498 renal
  GI50: 5.61 µM
  TGI: 12 µM
A549 NSCLC
  GI50: 7.35 µM
  TGI: 15.6 µM
ACHN renal
  GI50: 7.92 µM
  TGI: 14.6 µM
BT-549 breast
  GI50: 7.99 µM
  TGI: 14.7 µM
CAKI-1 renal
  GI50: 5.04 µM
  TGI: 11.1 µM
CCRF-CEM leukemia
  GI50: 8.98 µM
  TGI: 24.2 µM
COLO 205 colon
  GI50: 7.86 µM
  TGI: 14.6 µM
DU-145 prostate
  GI50: 7.87 µM
  TGI: 15.4 µM
EKVX NSCLC
  GI50: 7.18 µM
  TGI: 15.2 µM
HCC-2998 colon
  GI50: 6.9 µM
  TGI: 13.4 µM
HCT-116 colon
  GI50: 5.41 µM
  TGI: 11.4 µM
HCT-15 colon
  GI50: 5.88 µM
  TGI: 12.5 µM
HL-60(TB) leukemia
  GI50: 1.63 µM
  TGI: 7.84 µM
HOP-62 NSCLC
  GI50: 7.94 µM
  TGI: 15 µM
HS 578T breast
  GI50: 6.34 µM
  TGI: 22.9 µM
HT29 colon
  GI50: 2.89 µM
  TGI: 10.2 µM
IGROV1 ovarian
  GI50: 5.56 µM
  TGI: 11.6 µM
K-562 leukemia
  GI50: 0.409 µM
  TGI: 10.3 µM
KM12 colon
  GI50: 6.81 µM
  TGI: 14.9 µM
LOX IMVI melanoma
  GI50: 7.43 µM
  TGI: 14 µM
M14 melanoma
  GI50: 7.57 µM
  TGI: 14.5 µM
MALME-3M melanoma
  GI50: 7.47 µM
  TGI: 14.2 µM
MCF7 breast
  GI50: 6.09 µM
  TGI: 12.3 µM
MDA-MB-231 breast
  GI50: 9.65 µM
  TGI: 20.8 µM
MDA-MB-435
  GI50: 7.04 µM
  TGI: 13.6 µM
MOLT-4 leukemia
  GI50: 3.77 µM
  TGI: 15.9 µM
NCI-H226 lung
  GI50: 7.9 µM
  TGI: 15.5 µM
NCI-H23 lung
  GI50: 6.88 µM
  TGI: 14 µM
NCI-H460 lung
  GI50: 7.49 µM
  TGI: 16.4 µM
NCI-H522 lung
  GI50: 6.42 µM
  TGI: 13.2 µM
NCI/ADR-RES ovarian
  GI50: 6.82 µM
  TGI: 13.3 µM
OVCAR-3 ovarian
  GI50: 6.23 µM
  TGI: 12.6 µM
OVCAR-4 ovarian
  GI50: 6.89 µM
  TGI: 14.5 µM
OVCAR-5 ovarian
  GI50: 7.88 µM
  TGI: 16 µM
OVCAR-8 ovarian
  GI50: 8.35 µM
  TGI: 17.4 µM
PC-3 prostate
  GI50: 4.56 µM
  TGI: 12.5 µM
RPMI-8226 leukemia
  GI50: 6.88 µM
  TGI: 20.3 µM
RXF 393 renal
  GI50: 5.89 µM
  TGI: 12.2 µM
SF-268 CNS
  GI50: 7.55 µM
  TGI: 17.9 µM
SF-295 CNS
  GI50: 6.82 µM
  TGI: 13.5 µM
SF-539 CNS
  GI50: 7.8 µM
  TGI: 15.3 µM
SK-MEL-2 melanoma
  GI50: 9.91 µM
  TGI: 18.3 µM
SK-MEL-28 melanoma
  GI50: 8.5 µM
  TGI: 17.7 µM
SK-MEL-5 melanoma
  GI50: 7.63 µM
  TGI: 14.7 µM
SK-OV-3 ovarian
  GI50: 9.26 µM
  TGI: 22.2 µM
SN12C renal
  GI50: 6.86 µM
  TGI: 13.7 µM
SNB-19 CNS
  GI50: 9.39 µM
  TGI: 20.2 µM
SNB-75 CNS
  GI50: 2.86 µM
  TGI: 13 µM
SW-620 colon
  GI50: 6.77 µM
  TGI: 15.4 µM
T-47D breast
  GI50: 5.61 µM
  TGI: 11.9 µM
TK-10 renal
  GI50: 7.03 µM
  TGI: 14.5 µM
U251 CNS
  GI50: 5.92 µM
  TGI: 12.7 µM
UACC-257 melanoma
  GI50: 7.54 µM
  TGI: 15 µM
UACC-62 melanoma
  GI50: 7.14 µM
  TGI: 16.3 µM
UO-31 renal
  GI50: 3.17 µM
  TGI: 9.87 µM
